Experimental data as given in patent US8058261B2, “3′-ethynylcytidine derivative” (Taiho Pharmaceutical Co., Ltd., priority 2006, dated 2011).
Structures can show the parent of a compound that is named as a salt.

Assays:
[1] = tested on: Yoshida Sarcoma cell line (rat ascites tumor); assay: Antitumor effect when perorally administered, Donryu rat subcutaneous tumor implantation system; type: in vivo, Donryu rats; conditions: perorally once a day for seven days at 12 μmol/kg/day; tumor weight seven days after grouping vs non-treatment group; ECyd equimolar
Protocol: Pharmacological Test Example 1 Antitumor Effect of the Compound of the Present Invention When Perorally Administered to Donryu Rat Subcutaneous Tumor Implantation System
Cells of a Yoshida Sarcoma cell line (rat ascites tumor) intraperitoneally subcultured in Donryu rats (Charles River Laboratories Japan, Inc.) were implanted subcutaneously to 5-week-old Donryu rats in the back thereof at 2×10^4 cells/0.2 mL. Four days after implantation, the body weight of each rat was measured, and the rats were grouped so that the average body weight was nearly equal between the groups (7 rats per group).
Each of the ECyd derivatives was dissolved or suspended in 0.5% hydroxypropylmethylcellulose solution, and the resultant solution or suspension was perorally administered to each rat every day from the day of grouping once a day for seven days at a dose of 12 μmol/kg/day. The ECyd derivative was evaluated three times. As a control in each test, ECyd was used in an equimolar amount as the ECyd derivative.
Seven days after the day of grouping, the tumor weight of the rat in the pharmaceutical agent administration group was measured. The tumor weight of the rat to which no pharmaceutical agent had been administered (non-treatment group) was also measured. The average tumor weight of each of the pharmaceutical agent administration group and the non-treatment group was calculated. Tumor growth inhibition rate (IR) was determined through use of the following equation, whereby antitumor effect was evaluated. IR(%)=[1−(TWtest)/(TWcont)]×100 (Equation 1) [wherein TWtest and TWcont represent the average tumor weight of the pharmaceutical agent administration group and the non-treatment group, respectively].

[2] = Serum ECyd level after peroral administration; type: in vivo; conditions: perorally administered to Donryu male rats; compared with ECyd
Protocol: Separately, the compound of the present invention was perorally administered to Donryu male rats, and serum ECyd level was measured.

human tumor cells = conditions: intravenous 0.25 mg/kg for ten continuous days; gastric, colon, pancreatic, esophageal, bile duct, lung, breast, renal cancer strains; cited from earlier work

| Structure (SMILES) | Tumor growth inhibition rate IR (%) [1] [%] | serum ECyd level (concentration in blood) [2] | melting point | anti-tumor effect (human tumor cells) |
| --- | --- | --- | --- | --- |
| C#C[C@@]1(O)[C@@H](CO)O[C@@H](n2ccc(N)nc2=O)[C@@H]1O[Si](C(C)C)(C(C)C)C(C)C [Compound 11, 1-(2-O-Triisopropylsilyl-3-C-ethynyl-1-β-D-ribofuranosyl)cytosine] | 88.3 | particularly high concentration in blood | – | – |
| C#C[C@@]1(O)[C@@H](CO[Si](C)(C)CCCCCCCC)O[C@@H](n2ccc(N)nc2=O)[C@@H]1O [Compound 4, 1-[5-O-(Dimethyl-n-octylsilyl)-3-C-ethynyl-β-D-ribofuranosyl]cytosine] | – | particularly high concentration in blood | 175 to 177 °C (dec.) | – |
| C#C[C@@]1(O)[C@@H](CO[Si](C(C)C)(C(C)C)C(C)C)O[C@@H](n2ccc(N)nc2=O)[C@@H]1O [Compound 3, 1-[5-O-Triisopropylsilyl-3-C-ethynyl-β-D-ribofuranosyl]cytosine] | 93.4 | particularly high concentration in blood | > 219 °C (dec.) | – |
| C#C[C@@]1(O)[C@@H](CO[Si](C)(C)C(C)(C)C)O[C@@H](n2ccc(NC(=O)OC(C)(C)C)nc2=O)[C@@H]1O | – | – | 103 to 110 °C | – |
| C#C[C@@]1(O)[C@@H](CO)O[C@@H](n2ccc(N)nc2=O)[C@@H]1O [ECyd, 3′-ethynylcytidine] | 46.6 | – | – | excellent anti-tumor effect more greatly than any of fluoropyrimidine-based drugs |
| C#C[C@@]1(O)[C@@H](CO)O[C@@H](n2ccc(N)nc2=O)[C@@H]1O[Si](C)(C)C(C)(C)C [Compound 9, 1-[2-O-(tert-Butyldimethylsilyl)-3-C-ethynyl-1-β-D-ribofuranosyl]cytosine] | 99.6 | particularly high concentration in blood | – | – |
| C#C[C@@]1(O)[C@@H](CO[Si](CC)(CC)CC)O[C@@H](n2ccc(N)nc2=O)[C@@H]1O | – | – | 202 to 204 °C | – |
| C#C[C@@]1(O)[C@@H](CO)O[C@@H](n2ccc(N)nc2=O)[C@@H]1O[Si](C)(C)C(C)(C)C(C)C (as salt: trifluoroacetic acid salt) [Compound 13, 1-(2-O-Dimethylthexylsilyl-3-C-ethynyl-1-β-D-ribofuranosyl)cytosine trifluoroacetic acid salt] | – | – | 182 °C | – |
| C#C[C@@]1(O)[C@@H](CO)O[C@@H](n2ccc(N)nc2=O)[C@@H]1O[Si](C)(C)C(C)(C)C(C)C [Compound 14, 1-(2-O-Dimethylthexylsilyl-3-C-ethynyl-1-β-D-ribofuranosyl)cytosine] | 99.8 | particularly high concentration in blood | 218 °C | – |
| C#C[C@@]1(O)[C@@H](CO[Si](c2ccccc2)(c2ccccc2)C(C)(C)C)O[C@@H](n2ccc(N)nc2=O)[C@@H]1O (hydrate or solvate) | – | – | 210 to 213 °C | – |
| C#C[C@@]1(O)[C@@H](CO[Si](C)(C)C(C)(C)C(C)C)O[C@@H](n2ccc(N)nc2=O)[C@@H]1O[Si](C)(C)C(C)(C)C(C)C [Compound 12, 1-(2,5-bis-O-Dimethylthexylsilyl-3-C-ethynyl-1-β-D-ribofuranosyl)cytosine] | 91.5 | particularly high concentration in blood | 106 to 108 °C | – |
| C#C[C@@]1(O)[C@@H](CO[Si](C)(C)C(C)(C)C)O[C@@H](n2ccc(NC(=O)CCCCCC)nc2=O)[C@@H]1O [Compound 15, 1-[5-O-(tert-Butyldimethylsilyl)-3-C-ethynyl-β-D-ribofuranosyl]-4-N-heptanoylcytosine] | – | particularly high concentration in blood | 134 to 137 °C | – |
| C#C[C@@]1(O)[C@@H](CO[Si](C(C)C)(C(C)C)C(C)C)O[C@@H](n2ccc(NC(=O)CN(C)C)nc2=O)[C@@H]1O [Compound 18, 1-[5-O-(Triisopropylsilyl)-3-C-ethynyl-β-ribofuranosyl]-4-N-(N,N-dimethylglycyl)cytosine] | – | particularly high concentration in blood | 146 to 148 °C | – |
| C#C[C@@]1(O)[C@@H](CO[Si](C)(C)C(C)(C)C)O[C@@H](n2ccc(N)nc2=O)[C@@H]1O [Compound 1, 1-[5-O-(tert-Butyldimethylsilyl)-3-C-ethynyl-β-D-ribofuranosyl]cytosine] | 94.6 | particularly high concentration in blood | 251 to 256 °C (dec.) | – |
| C#C[C@@]1(O)[C@@H](CO[Si](C)(C)C(C)(C)C)O[C@@H](n2ccc(NC(=O)CN(C)C)nc2=O)[C@@H]1O [Compound 17, 1-[5-O-(tert-Butyldimethylsilyl)-3-C-ethynyl-β-D-ribofuranosyl]-4-N-(N,N-dimethylglycyl)cytosine] | – | particularly high concentration in blood | 180 to 185 °C | – |
| C#C[C@@]1(O)[C@@H](CO[Si](C)(C)C(C)(C)C(C)C)O[C@@H](n2ccc(N)nc2=O)[C@@H]1O | – | – | > 197 °C (dec.) | – |
| C#C[C@@]1(O)[C@@H](CO[Si](C)(C)c2ccccc2)O[C@@H](n2ccc(N)nc2=O)[C@@H]1O | – | – | 171 to 173 °C | – |
